Laboratory results: US12594267B2, “Capsid inhibitors for the treatment of HIV” (Gilead Sciences, Inc., priority 2018, dated 2026)
Like-named read-outs stand apart in the source and are kept apart here.

Assay: PK after subcutaneous administration of solutions in dogs
Type: in vivo, Beagle dog
Details: male, beagle, dog, plasma, sc, 12 mg/kg; for concentration at 336 h / concentration at 504 h / concentration at 672 h / concentration at 840 h / concentration at 1008 h / concentration at 1344 h / concentration at 1680 h / concentration at 1 h / concentration at 3 h / concentration at 8 h / concentration at 24 h / concentration at 48 h / concentration at 72 h / concentration at 96 h / concentration at 168 h: SC 12 mg/kg, 400 mg/mL in 15% water/85% PEG 300; for AUC(0-t): male beagle dog, single SC 12 mg/kg, 400 mg/mL in 85% PEG300 and 15% water, mean ± SD
Experimental: Formulations containing the compound of Formula (Ia) were prepared as aqueous solutions or oral formulations and administered subcutaneously to rats, dogs, cynomolgus monkey, and/or rhesus monkey.
A solution of the compound of Formula (Ia) in 10% ethanol, 13% water, and 77% PEG 200 (400 mg/mL) was prepared. The solution was administered subcutaneously to dogs at a dose of 12 mg/kg and rats at a dose of 50 mg/kg and the pharmacokinetic (PK) profile was determined. […] In both species, plasma concentrations of the compound of Formula (Ia) were maintained above the target trough concentration of 20 nM (corresponding to an IQ of 5) for at least 84 days (12 weeks).
A solution of the compound of Formula (Ia) in 15% water and 85.0 PEG 300 (400 mg/mL) was prepared. The solution was administered subcutaneously to male beagle dogs at a dose level of 12 mg/kg and dose volume of […] and the pharmacokinetic (PK) profile was determined.
A solution of the compound of Formula (a) sodium salt in water and 300 (300 mg/mL) was prepared that contained 22.6% water/50% PEG 300/1.1% NaOH/26.3% Formula (Ia). The solution was administered subcutaneously to male beagle dogs at a dose level of 12 mg/kg and dose volume of […] and the pharmacokinetic (PK) profile was determined.
A 300 mg/ml solution of a compound of Formula (Ia) having 9.8 w/w % water, 65.0 w/w % PEG 300, and 25.2 w/w % of the compound of Formula (Ia) was prepared. The solution was administered subcutaneously to rats at a dose of 50 mg/kg and to dogs at a dose of 12 mg/kg and the pharmacokinetic (PK) profile was determined. […] In the rat, plasma concentrations of the compound of Formula (Ia) were maintained above the target trough concentration of 20 nM for at least 168 days (24 weeks). In the dog, plasma concentrations of the compound of Formula (Ia) were maintained above the target trough concentration of 20 nM for at least 84 days (12 weeks).
(§1) A 150 mg/ml solution of a compound of Formula (Ia) having 27.92 w/w % water, 58.04 w/w % PEG 300, 13.47 w/w % of a compound of Formula (Ia), and 1.1 w/w % NaOH was prepared. The solution was administered subcutaneously to rats at a dose of 50 mg/kg and to dogs at a dose of 12 mg/kg and the pharmacokinetic (PK) profile was determined. […] In the rat, plasma concentrations of the compound of Formula (Ia) were maintained above the target trough concentration of 20 nM for at least 126 days (18 weeks). In the dog, plasma concentrations of the compound of Formula (Ia) were maintained above the target trough concentration of 20 nM for at least 56 days (8 weeks).
as §1, with “300” for “150”, “23.2” for “27.92”, “50.0” for “58.04”, “25.7” for “13.47”
A 50 mg/ml solution of a compound of Formula (Ia) having 30.07 w/w % water, 64.40 w/w % PEG 300, 4.68 w/w % of a sodium salt of the compound of Formula (Ia), and 0.85 w/w % poloxamer 188 was prepared. The solution was administered subcutaneously to rats at a dose of 50 mg/kg and to dogs at a dose of 6 mg/kg and the pharmacokinetic (PK) profile was determined. […] In the rat, plasma concentrations of the compound of Formula (Ia) were maintained above the target trough concentration of 20 nM for at least 28 days (4 weeks). In the dog, plasma concentrations of the compound of Formula (Ia) were maintained above the target trough concentration of 20 nM for at least 14 days (2 weeks). […]

With CC(C)(C#Cc1ccc(-c2ccc(Cl)c3c(NS(C)(=O)=O)nn(CC(F)(F)F)c23)c([C@H](Cc2cc(F)cc(F)c2)NC(=O)Cn2nc(C(F)(F)F)c3c2C(F)(F)[C@@H]2C[C@H]32)n1)S(C)(=O)=O [Formula (Ia), N—((S)-1-(3-(4-chloro-3-(methylsulfonamido)-1-(2,2,2-trifluoroethyl)-1H-indazol-7-yl)-6-(3-methyl-3-(methylsulfonyl)but-1-yn-1-yl)pyridin-2-yl)-2-(3,5-difluorophenyl)ethyl)-2-((3bS,4aR)-5,5-difluoro-3-(trifluoromethyl)-3b,4,4a,5-tetrahydro-1H-cyclopropa[3,4]cyclopenta[1,2-c]pyrazol-1-yl)acetamide] the concentration at 336 h (dog #1) was 135 nM, the concentration at 504 h (dog #1) was 172 nM and the concentration at 672 h (dog #1) was 93.1 nM. It also gave a concentration at 840 h (dog #1) of 150 nM, a concentration at 1008 h (dog #1) of 80.2 nM and a concentration at 1344 h (dog #1) of 42.7 nM. The concentration at 1680 h (dog #1) was 69.5 nM, the concentration at 1 h (dog #2) was 1.2 nM and the concentration at 3 h (dog #2) was 2.6 nM. The concentration at 8 h (dog #2) was 15.5 nM, the concentration at 24 h (dog #2) was 27.8 nM and the concentration at 48 h (dog #2) was 60.6 nM. The concentration at 72 h (dog #2) was 37.8 nM, the concentration at 96 h (dog #2) was 28.8 nM and the concentration at 168 h (dog #2) was 43.1 nM. It also gave a concentration at 336 h (dog #2) of 64.7 nM, a concentration at 504 h (dog #2) of 114 nM and a concentration at 672 h (dog #2) of 81.5 nM. It also gave a concentration at 840 h (dog #2) of 110 nM, a concentration at 1008 h (dog #2) of 70.7 nM and a concentration at 1344 h (dog #2) of 41.2 nM. The concentration at 1680 h (dog #2) was 42.2 nM, the concentration at 1 h (dog #3) was 1.2 nM and the concentration at 3 h (dog #3) was 2.3 nM. It also gave a concentration at 8 h (dog #3) of 9.2 nM, a concentration at 24 h (dog #3) of 16.8 nM and a concentration at 48 h (dog #3) of 13.2 nM. It also gave a concentration at 72 h (dog #3) of 13.2 nM, a concentration at 96 h (dog #3) of 10.4 nM and a concentration at 168 h (dog #3) of 30.8 nM. The concentration at 336 h (dog #3) was 53 nM, the concentration at 504 h (dog #3) was 82.9 nM and the concentration at 672 h (dog #3) was 56.9 nM. The concentration at 840 h (dog #3) was 107 nM, the concentration at 1008 h (dog #3) was 54.1 nM and the concentration at 1344 h (dog #3) was 30.2 nM. The concentration at 1680 h (dog #3) was 28.5 nM, the concentration at 3 h (dog mean, n=3) was 2 nM and the concentration at 8 h (dog mean, n=3) was 11.8 nM. For the same compound, the concentration at 24 h (dog mean, n=3) was 21.5 nM, the concentration at 48 h (dog mean, n=3) was 42.8 nM and the concentration at 72 h (dog mean, n=3) was 37.9 nM. It also gave a concentration at 96 h (dog mean, n=3) of 32.7 nM, a concentration at 168 h (dog mean, n=3) of 48.6 nM and a concentration at 336 h (dog mean, n=3) of 84.2 nM. The concentration at 504 h (dog mean, n=3) was 123 nM, the concentration at 672 h (dog mean, n=3) was 77.2 nM and the concentration at 840 h (dog mean, n=3) was 122 nM. For the same compound, the concentration at 1008 h (dog mean, n=3) was 68.3 nM, the concentration at 1344 h (dog mean, n=3) was 38 nM and the concentration at 1680 h (dog mean, n=3) was 46.7 nM. For the same compound, the concentration at 1 h (dog mean) was 1.2 nM, the AUC(0-t) (n=3, read-out: AUC0-24h) was 0.304 ± 0.082 µM·h and the AUC(0-t) (n=3, read-out: AUC0-48h) was 1.08 ± 0.44 µM·h. For the same compound, the AUC(0-t) (n=3, read-out: AUC0-72h) was 2.04 ± 0.98 µM·h, the AUC(0-t) (n=3, read-out: AUC0-168h) was 5.82 ± 3.04 µM·h and the AUC(0-t) (n=3, read-out: AUC0-672h) was 51.2 ± 21 µM·h. For the same compound, the AUC(0-t) (n=3, read-out: AUC0-1344h) was 102 ± 30 µM·h.
